Assay results as given in patent US9029414B2, “Triterpenoid compounds and methods of use thereof” (Biotechnology Research Corporation, priority 2008, dated 2015).

Legend:
hippocampal neurons = assay: Hippocampal neuron survival assay against glutamate excitotoxicity (LDH); type: cell-based, Sprague-Dawley rats; details: 30 μM 24 hrs, glutamate 10-200 μM 20 min
Description: Hippocampal neurons/cortical neurons were prepared from embryonic day 18 Sprague-Dawley rats. After the cortices had been removed from the brain, isolated cells were plated onto Poly d-Lysine (PDL) (P0899, Sigma)-coated 48 well plates (150687, NUNC) at a density of 2×10^5 cell per well using Neurobasal Medium (NB) (21103-049, Gibco) with B27 supplement (17504-044, Gibco), penicillin/streptomycin (15140, Gibco) and 1 mM L-glutamine (25030, Gibco). The cell culture was incubated at 37° C. in a humidified atmosphere of 5% CO2 in air. Medium was changed to growth medium (Neurobasal Medium with penicillin/streptomycin and B27 supplement) after 3 hours. Half medium was changed with growth medium every 2-3 days to maintain the cells until day 10 in vitro (DIV 10). Serial dilutions of samples were prepared in growth medium and DMSO was used as vehicle control. For pre-treating assay, half of the medium was removed from wells, and equal amount of diluted samples were replaced. Cells were then incubated for 2 hours at 37° C. in a humidified atmosphere of 5% CO2 in air. […] Afterwards, cells were incubated in growth medium for 18-24 hours and detected with Cytotoxicity Detection Kit (1644793, Roche).
Hippocampal neurons were treated with DA021 and subsequently subjected to varying concentrations of glutamate. […] LDH release into the medium was then measured.

BALB/c mice = assay: Murine model of oxazolone-induced ear edema; type: in vivo
Description: This is a contract research performed by Washington Biotechnology Inc., Columbia, Md., protocol 1041. On day 0, 42 BALB/c mice (female, Harlan Sprague-Dawley, 5-6 weeks) were shaved on the ventral surface of the right ear. 100 μl of the 5% oxazolone solution (Sigma) was then applied to the saved ear. The treated mice were then returned to the cage and kept for additional 6 days. On day 7, the mice were weighed and dosed orally with 10 ml/kg water or DA021 at either 30 mg/kg or 100 mg/kg or topically applied on both sides of both ears with 25 μl betamethasone. Thirty minutes after oral dosing, 5 μl of 3% oxazolone was applied to both sides of the right ear and 5 μl of acetone was applied to both sides of the contralateral ear. Twenty-four hours after 3% oxazolone/acetone application, the mice were euthanized, the ears removed and weighed.
To evaluate the efficacy and potency of DA021 in acute inflammation, an oxazolone-induced ear edema model was carried out in mice. Oxazolone-induced ear edema model is a commonly used skin inflammatory animal model. Oxazolone (OA) is an allergen that induces immunological responses that lead to surface edema. […] Betamethasone (BMS) which was used as a positive control, is a corticosteroid that is used as an anti-itching cream and other anti-inflammatory remedies.
Mice were then treated with betamethasone (BMS, mg, topical) or DA021 (mg/kg, p.o.) and the ears were removed and weighed. N=10 per group, significance (p-value) was calculated versus OA+vehicle using the Student's T-test, *=P≦1×10^−7, #=P≦1×10^−12.

human MC1 receptor [1] = molecular target: T1, human MC1 receptor (Homo sapiens, UniProt Q01726); assay: Radioligand competition binding assay, MC1
Description: (§1) DA001 was evaluated against 109 receptor binding assays and 17 enzyme assays, comprising of selective, central and peripheral therapeutically-relevant targets. Radioligand competition assays were conducted whereby DA001 was tested at one concentration (10 μM) in duplicate. […] It could compete with the radioligand [^125I-NDP-alpha-melanocyte-stimulating hormone (α-MSH)] binding for MC1 and MC4 but not MC3 and MC5 nor the related family, the melanin concentrating hormone receptors (MCH1 and MCH2).
(§2) To determine the IC50 for DA001 to inhibit α-MSH binding on MC1 and MC4 receptor, the compound was further characterized by a dose-dependent study. DA001 was evaluated with 8 concentrations on MC1 and MC4 receptor binding assays.
(§3) The specific ligand binding to the receptors is defined as the difference between the total binding and the nonspecific binding determined in the presence of an excess of unlabelled ligand. The results are expressed as a percent of control specific binding [(measured specific binding/control specific binding)×100] and as a percent inhibition of control specific binding {100−[(measured specific binding/control specific binding)×100]} obtained in the presence of DA001. The IC50 values (concentration causing a half-maximal inhibition of control specific binding) and Hill coefficients (nH) were determined by non-linear regression analysis of the competition curves generated with mean replicate values using Hill equation curve fitting (Y=D+[(A−D)/(1+(C/C50)nH)], where Y=specific binding, D=minimum specific binding, A=maximum specific binding, C=compound concentration, C50=IC50, and nH=slope factor). This analysis was performed using a software developed at Cerep (Hill software) and validated by comparison with data generated by the commercial software SigmaPlot® 4.0 for Windows® (© 1997 by SPSS Inc.).

human MC4 receptor = human MC4 receptor (Homo sapiens, UniProt P32245); assay: Radioligand competition binding assay, MC4
Description: as §1, §2, §3

kainate receptor = assay: Radioligand competition binding assay, kainate; details: 10 μM in duplicate
Description: as §1

human MC1 receptor [2] = molecular target: T1, human MC1 receptor; assay: Cellular receptor functional assay (cAMP), MC1; type: cell-based
Description: DA001 inhibits ligand binding to MC1 and MC4 receptors. To determine whether the inhibitory effect is due to agonist or antagonist activity, DA001 was evaluated at 6 or 8 concentrations in cellular assays assessing receptor function. Upon ligand binding, the MC1 or MC4 receptor is activated which leads to an increase in intracellular cyclic AMP. […] DA001 alone is unable to induce cAMP increase (blue square dots). […] DA001 was further evaluated with MC2 receptor functional assay. Upon ligand binding, the MC2 receptor is activated which leads to an increase in intracellular cyclic AMP.

Chain of human MC4 receptor (P32245 whole entry): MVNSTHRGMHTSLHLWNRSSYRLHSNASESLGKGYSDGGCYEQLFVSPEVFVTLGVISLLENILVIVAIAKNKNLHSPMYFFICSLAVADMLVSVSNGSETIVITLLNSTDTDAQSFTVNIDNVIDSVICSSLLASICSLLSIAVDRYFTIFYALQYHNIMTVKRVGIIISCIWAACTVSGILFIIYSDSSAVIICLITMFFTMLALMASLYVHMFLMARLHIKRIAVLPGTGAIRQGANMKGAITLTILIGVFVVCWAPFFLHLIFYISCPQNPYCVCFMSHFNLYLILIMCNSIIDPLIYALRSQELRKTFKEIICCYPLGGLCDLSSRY
T1 sequence (Q01726 whole entry): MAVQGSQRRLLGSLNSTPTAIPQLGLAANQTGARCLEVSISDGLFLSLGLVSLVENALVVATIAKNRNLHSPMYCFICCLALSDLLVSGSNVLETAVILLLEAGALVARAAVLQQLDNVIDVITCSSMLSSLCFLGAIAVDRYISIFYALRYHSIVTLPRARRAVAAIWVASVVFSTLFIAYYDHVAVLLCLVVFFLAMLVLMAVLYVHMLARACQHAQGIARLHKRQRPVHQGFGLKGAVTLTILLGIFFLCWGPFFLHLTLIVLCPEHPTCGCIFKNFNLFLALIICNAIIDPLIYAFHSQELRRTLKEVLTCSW

SMILES	protection from glutamate-induced excitotoxicity (LDH release) (hippocampal neurons)	Change in Ear Weight (mg), Average (BALB/c mice; 30 mg/kg po) [mg]	Change in Ear Weight, % Inhibition (BALB/c mice; 30 mg/kg po) [%]	Change in Ear Weight (mg), Average (BALB/c mice; 100 mg/kg po) [mg]	Change in Ear Weight, % Inhibition (BALB/c mice; 100 mg/kg po) [%]	Ki (human MC1 receptor [1]) [µM]	IC50 (human MC1 receptor [1]; 8 concentrations) [µM]	nH (human MC1 receptor [1]; Hill coefficient)	Ki (human MC4 receptor) [µM]	IC50 (human MC4 receptor; 8 concentrations) [µM]	nH (human MC4 receptor; Hill coefficient)	% inhibition of control specific binding (kainate receptor) [%]	Kb (human MC1 receptor [2]; antagonist effect at human MC1 receptor) [µM]	IC50 (human MC1 receptor [2]; inhibition of cAMP increase by NDP-α-MSH, cells over-expressing MC1, read-out: IC50, antagonist effect) [µM]
C=C(C)[C@@H]1CC[C@]2(/C=N/O)CC[C@]3(C)C(CCC4[C@@]5(C)CCC(=O)[C@@](C)(CO)[C@@H]5CC[C@]43C)C12 (some centres unmarked) [DA021]	protects neurons against differing concentrations of glutamate	48.3	31.7	33.3	52.9									
C=C(C)[C@@H]1CC[C@]2(C(=O)O)CC[C@]3(C)C(CC[C@@H]4[C@@]5(C)CC[C@H](O[C@@H]6OC[C@H](O)[C@H](O)[C@H]6O[C@@H]6O[C@@H](C)[C@H](O)[C@@H](O)[C@H]6O)[C@@](C)(CO)[C@@H]5CC[C@]43C)[C@@H]12 (stereo partly drawn) [DA001, 3-O-[α-L-rhamnopyranosyl-(1→2)-α-L-arabinopyranosyl]-3,23-dihydroxy-20(29)-lupen-28-oic acid]						5.2	10	0.9	6.3	6.8	1.3	35	5.3	50
